Source: ChEMBL document CHEMBL1681733, “Synthesis and evaluation of [(1R)-1-amino-2-(2,5-difluorophenyl)ethyl]cyclohexanes and 4-[(1R)-1-amino-2-(2,5-difluorophenyl)ethyl]piperidines as DPP-4 inhibitors” (Bioorg Med Chem Lett, 2011)

Tests used:
Dipeptidyl peptidase 2 = Dipeptidyl peptidase 2 (Homo sapiens, UniProt Q9UHL4); assay: Inhibition of QPP
Dipeptidyl peptidase 4 = Dipeptidyl peptidase 4 (Homo sapiens, UniProt P27487)
Prolyl endopeptidase FAP = molecular target: T1, Prolyl endopeptidase FAP (Homo sapiens, UniProt Q12884); assay: Inhibition of FAP
T1 sequence (Q12884 whole entry): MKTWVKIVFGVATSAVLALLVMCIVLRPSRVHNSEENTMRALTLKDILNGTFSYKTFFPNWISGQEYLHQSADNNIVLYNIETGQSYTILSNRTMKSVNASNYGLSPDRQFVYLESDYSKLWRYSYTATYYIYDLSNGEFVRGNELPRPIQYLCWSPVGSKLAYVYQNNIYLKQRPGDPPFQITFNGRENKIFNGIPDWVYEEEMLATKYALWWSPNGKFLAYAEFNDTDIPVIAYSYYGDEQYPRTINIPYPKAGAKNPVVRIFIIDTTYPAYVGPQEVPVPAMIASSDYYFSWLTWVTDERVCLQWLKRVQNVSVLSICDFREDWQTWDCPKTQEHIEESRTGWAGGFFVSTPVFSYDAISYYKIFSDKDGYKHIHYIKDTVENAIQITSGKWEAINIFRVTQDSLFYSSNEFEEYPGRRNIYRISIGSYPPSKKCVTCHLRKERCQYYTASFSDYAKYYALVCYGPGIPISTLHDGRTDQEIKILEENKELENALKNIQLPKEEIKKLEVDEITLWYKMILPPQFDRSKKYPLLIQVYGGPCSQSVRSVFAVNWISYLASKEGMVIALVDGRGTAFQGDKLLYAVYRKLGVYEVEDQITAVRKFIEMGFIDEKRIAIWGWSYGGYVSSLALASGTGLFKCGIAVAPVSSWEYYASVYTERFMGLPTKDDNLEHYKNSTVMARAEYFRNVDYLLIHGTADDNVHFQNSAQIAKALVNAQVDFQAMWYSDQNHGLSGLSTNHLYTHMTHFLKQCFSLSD

Dipeptidyl peptidase 8 = Dipeptidyl peptidase 8 (Homo sapiens, UniProt Q6V1X1); assay: Inhibition of DPP8
Chain of Dipeptidyl peptidase 8 (Q6V1X1 whole entry): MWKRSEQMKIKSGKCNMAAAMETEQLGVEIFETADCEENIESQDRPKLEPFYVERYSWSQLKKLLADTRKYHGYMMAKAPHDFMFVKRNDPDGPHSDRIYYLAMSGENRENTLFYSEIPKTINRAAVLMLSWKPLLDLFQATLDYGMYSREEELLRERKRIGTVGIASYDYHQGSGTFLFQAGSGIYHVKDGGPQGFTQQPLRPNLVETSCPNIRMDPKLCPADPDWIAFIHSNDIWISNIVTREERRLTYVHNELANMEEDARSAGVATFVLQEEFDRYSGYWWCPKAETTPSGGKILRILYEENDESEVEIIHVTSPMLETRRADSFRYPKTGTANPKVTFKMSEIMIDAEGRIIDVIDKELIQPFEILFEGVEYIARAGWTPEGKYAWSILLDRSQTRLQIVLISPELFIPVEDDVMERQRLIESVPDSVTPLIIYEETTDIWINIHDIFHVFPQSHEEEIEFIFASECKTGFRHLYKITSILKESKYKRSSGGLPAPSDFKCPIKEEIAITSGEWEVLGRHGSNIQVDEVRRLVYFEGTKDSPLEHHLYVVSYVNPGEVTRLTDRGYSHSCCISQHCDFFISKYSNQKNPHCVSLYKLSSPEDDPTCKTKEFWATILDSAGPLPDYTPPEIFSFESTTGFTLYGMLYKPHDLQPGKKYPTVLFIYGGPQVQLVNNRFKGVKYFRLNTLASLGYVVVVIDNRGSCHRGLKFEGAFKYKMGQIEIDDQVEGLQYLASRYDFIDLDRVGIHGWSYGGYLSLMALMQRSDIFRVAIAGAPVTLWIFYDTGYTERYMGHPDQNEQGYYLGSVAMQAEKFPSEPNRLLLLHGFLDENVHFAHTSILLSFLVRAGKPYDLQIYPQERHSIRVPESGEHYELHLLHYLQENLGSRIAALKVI

Chain of Dipeptidyl peptidase 4 (P27487 whole entry): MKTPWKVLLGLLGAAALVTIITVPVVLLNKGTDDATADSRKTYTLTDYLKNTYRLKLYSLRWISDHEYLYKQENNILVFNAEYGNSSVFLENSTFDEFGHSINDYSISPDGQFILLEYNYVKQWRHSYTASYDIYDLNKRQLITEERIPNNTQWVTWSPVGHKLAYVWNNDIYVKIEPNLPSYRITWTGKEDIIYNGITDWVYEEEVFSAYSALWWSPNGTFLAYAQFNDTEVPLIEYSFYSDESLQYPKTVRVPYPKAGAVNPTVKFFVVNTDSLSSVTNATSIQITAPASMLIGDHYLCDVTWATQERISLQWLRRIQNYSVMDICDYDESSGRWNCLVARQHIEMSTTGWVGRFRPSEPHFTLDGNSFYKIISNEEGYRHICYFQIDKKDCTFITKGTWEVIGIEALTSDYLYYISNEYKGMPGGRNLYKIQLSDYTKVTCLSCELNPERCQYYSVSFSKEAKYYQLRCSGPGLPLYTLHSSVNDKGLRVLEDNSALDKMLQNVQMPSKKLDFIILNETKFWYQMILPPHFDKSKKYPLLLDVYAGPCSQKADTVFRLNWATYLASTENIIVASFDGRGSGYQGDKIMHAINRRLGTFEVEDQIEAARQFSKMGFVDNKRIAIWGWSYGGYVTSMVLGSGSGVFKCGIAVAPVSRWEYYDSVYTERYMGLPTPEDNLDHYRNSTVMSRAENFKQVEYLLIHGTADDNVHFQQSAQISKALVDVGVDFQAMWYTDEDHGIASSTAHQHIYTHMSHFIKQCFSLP

| SMILES | IC50 (Dipeptidyl peptidase 2) | IC50 (Dipeptidyl peptidase 4) | IC50 (Prolyl endopeptidase FAP) | IC50 (Dipeptidyl peptidase 8) |
| --- | --- | --- | --- | --- |
| N[C@H](Cc1cc(F)ccc1F)[C@H]1CC[C@@H](N2CCn3c(nnc3C(F)(F)F)C2)CC1 | > 100 µM | 0.28 µM | > 35 µM | – |
| CN(C(=O)C(C)(C)C)[C@H]1CC[C@H]([C@H](N)Cc2cc(F)ccc2F)CC1 | – | – | > 35 µM | – |
| NC(=O)C1CCCN([C@H]2CC[C@H]([C@H](N)Cc3cc(F)ccc3F)CC2)C1 (single isomer, unassigned) | – | – | > 35 µM | – |
| CN(C(=O)c1csnn1)[C@H]1CC[C@H]([C@H](N)Cc2cc(F)ccc2F)CC1 | – | – | > 35 µM | – |
| N[C@H](Cc1cc(F)ccc1F)[C@H]1CC[C@H](N2CCCCC2)CC1 | – | – | > 35 µM | – |
| CCOC(=O)c1cncc(N2CCC([C@H](N)Cc3cc(F)ccc3F)CC2)c1 | – | – | > 35 µM | – |
| N[C@H](Cc1cc(F)ccc1F)C1CCN(c2cnc(=O)[nH]c2)CC1 | – | – | > 35 µM | – |
| N#Cc1cncc(N2CCC([C@H](N)Cc3cc(F)ccc3F)CC2)c1 | – | – | > 35 µM | – |
| NC(=O)O[C@@H]1CCCN([C@H]2CC[C@H]([C@H](N)Cc3cc(F)ccc3F)CC2)C1 | – | – | > 35 µM | – |
| N[C@H](Cc1cc(F)ccc1F)C1CCN(c2ccncc2)CC1 | – | – | > 35 µM | – |
| N[C@H](C(=O)N1CCSC1)[C@H]1CC[C@H](NC(=O)c2ccc(OC(F)(F)F)cc2)CC1 | – | – | > 35 µM | – |
| N[C@H](Cc1cc(F)ccc1F)C1CCN(c2ncccn2)CC1 | – | – | > 35 µM | – |
| CS(=O)(=O)N1CCC([C@H](N)Cc2cc(F)ccc2F)CC1 | – | – | > 35 µM | – |
| CS(=O)(=O)N(Cc1ccccc1)[C@H]1CC[C@H]([C@H](N)Cc2cc(F)ccc2F)CC1 | 11 µM | 1.3 µM | > 35 µM | > 100 µM |
| CN([C@H]1CC[C@H]([C@H](N)Cc2cc(F)ccc2F)CC1)S(=O)(=O)c1ccccc1C(F)(F)F | – | – | > 35 µM | – |
| CN([C@H]1CC[C@H]([C@H](N)Cc2cc(F)ccc2F)CC1)S(=O)(=O)c1cccc(C#N)c1 | 9.6 µM | 0.085 µM | > 35 µM | > 69 µM |
| NC(=O)C1CCCC(N2CCC([C@H](N)Cc3cc(F)ccc3F)CC2)C1 (stereo partly specified) | – | – | > 35 µM | – |
| N[C@H](Cc1cc(F)ccc1F)C1CCN(c2cccnc2)CC1 | – | – | > 35 µM | – |
| CN([C@H]1CC[C@H]([C@H](N)Cc2cc(F)ccc2F)CC1)S(=O)(=O)c1ccc(C#N)cc1 | 23 µM | 0.18 µM | > 35 µM | > 100 µM |
| N[C@H](Cc1cc(F)ccc1F)C1CCN(c2ccc(F)nc2)CC1 | – | – | > 35 µM | – |
| N[C@H](Cc1cc(F)ccc1F)[C@H]1CC[C@H](NCCCC(F)(F)F)CC1 | – | – | > 35 µM | – |
| N[C@H](Cc1cc(F)ccc1F)[C@H]1CC[C@H](N2CCC[C@@H](O)C2)CC1 | > 100 µM | 0.27 µM | > 35 µM | – |
| CN([C@H]1CC[C@H]([C@H](N)Cc2cc(F)ccc2F)CC1)S(=O)(=O)c1ccc(-c2cnco2)cc1 | – | – | > 35 µM | – |
| N[C@H](Cc1cc(F)ccc1F)[C@H]1CC[C@@H](N2CCC(F)(F)C2)CC1 | – | – | > 35 µM | – |
| Cc1noc(C)c1S(=O)(=O)N(Cc1ccccc1)[C@H]1CC[C@H]([C@H](N)Cc2cc(F)ccc2F)CC1 | 10 µM | 0.67 µM | > 35 µM | > 100 µM |
| COC(=O)C1CCCC(N2CCC([C@H](N)Cc3cc(F)ccc3F)CC2)C1 (stereo partly specified) | – | – | > 35 µM | – |
| CN([C@H]1CC[C@H]([C@H](N)Cc2cc(F)ccc2F)CC1)S(=O)(=O)c1ccc(C(N)=O)cc1 | – | – | > 35 µM | – |
| CC(C)C(=O)N(C)[C@H]1CC[C@H]([C@H](N)Cc2cc(F)ccc2F)CC1 | > 100 µM | 0.13 µM | > 35 µM | > 100 µM |

| SMILES | IC50 (Dipeptidyl peptidase 2) | IC50 (Dipeptidyl peptidase 4) | IC50 (Prolyl endopeptidase FAP) | IC50 (Dipeptidyl peptidase 8) |
| --- | --- | --- | --- | --- |
| N[C@H](Cc1cc(F)ccc1F)C1CCN(C2CCCC(C(=O)O)C2)CC1 (stereo partly specified) | – | – | > 35 µM | – |
| N[C@H](Cc1cc(F)ccc1F)[C@H]1CC[C@H](N2CCC(F)(F)C2)CC1 | – | – | > 35 µM | – |
| CC(=O)N(Cc1ccccc1)[C@H]1CC[C@H]([C@H](N)Cc2cc(F)ccc2F)CC1 | 17 µM | 0.11 µM | > 35 µM | > 100 µM |
| CN([C@H]1CC[C@H]([C@H](N)Cc2cc(F)ccc2F)CC1)S(=O)(=O)c1ccccc1 | – | – | > 35 µM | – |
| N[C@H](Cc1cc(F)ccc1F)C1CCN(c2ccccn2)CC1 | – | – | > 35 µM | – |
| CN([C@H]1CC[C@H]([C@H](N)Cc2cc(F)ccc2F)CC1)S(=O)(=O)c1ccc(F)cc1F | – | – | > 35 µM | – |
| Cc1noc(C)c1C(=O)N(C)[C@H]1CC[C@H]([C@H](N)Cc2cc(F)ccc2F)CC1 | – | – | > 35 µM | – |
| N[C@H](Cc1cc(F)ccc1F)[C@H]1CC[C@H](N(CCCC(F)(F)F)Cc2ccccc2)CC1 (mixture of isomers) | 23 µM | 0.69 µM | > 35 µM | > 100 µM |
| N[C@H](Cc1cc(F)ccc1F)[C@H]1CC[C@@H](N2CCCCC2)CC1 | – | – | > 35 µM | – |
| CN(C(=O)c1c[nH]c2ccccc12)[C@H]1CC[C@H]([C@H](N)Cc2cc(F)ccc2F)CC1 | – | – | > 35 µM | – |
| NC(=O)C1CCCN([C@H]2CC[C@@H]([C@H](N)Cc3cc(F)ccc3F)CC2)C1 (stereo partly specified) | – | – | > 35 µM | – |
| CC(=O)Nc1nc(C)c(S(=O)(=O)N(C)[C@H]2CC[C@H]([C@H](N)Cc3cc(F)ccc3F)CC2)s1 | – | – | > 35 µM | – |
| CN(C(=O)c1cccnc1)[C@H]1CC[C@H]([C@H](N)Cc2cc(F)ccc2F)CC1 | 58 µM | 0.14 µM | > 35 µM | > 100 µM |
| CCN([C@H]1CC[C@H]([C@H](N)Cc2cc(F)ccc2F)CC1)S(=O)(=O)c1c(C)noc1C | 29 µM | 0.038 µM | > 35 µM | > 100 µM |
| CC(=O)N(C)[C@H]1CC[C@@H]([C@H](N)Cc2cc(F)ccc2F)CC1 | > 100 µM | 0.99 µM | > 35 µM | – |
| CCN(Cc1ccccc1)[C@H]1CC[C@H]([C@H](N)Cc2cc(F)ccc2F)CC1 | – | – | > 35 µM | – |
| CCN([C@H]1CC[C@H]([C@H](N)Cc2cc(F)ccc2F)CC1)S(C)(=O)=O | 68 µM | 0.26 µM | > 35 µM | > 100 µM |
| NC(=O)[C@H]1CCCN([C@H]2CC[C@H]([C@H](N)Cc3cc(F)ccc3F)CC2)C1 | – | – | > 35 µM | – |
| CN([C@H]1CC[C@H]([C@H](N)Cc2cc(F)ccc2F)CC1)S(=O)(=O)c1cccnc1 | 35 µM | 0.11 µM | > 35 µM | > 100 µM |
| CN([C@H]1CC[C@H]([C@H](N)Cc2cc(F)ccc2F)CC1)S(=O)(=O)c1ccc(N)cc1 | – | – | > 35 µM | – |
| CN(C(=O)CCN)[C@H]1CC[C@H]([C@H](N)Cc2cc(F)ccc2F)CC1 | > 100 µM | 0.73 µM | > 35 µM | > 100 µM |
| COc1ncc(N2CCC([C@H](N)Cc3cc(F)ccc3F)CC2)cn1 | – | – | > 35 µM | – |
| N[C@H](Cc1cc(F)ccc1F)[C@H]1CC[C@H](N2CCn3c(nnc3C(F)(F)F)C2)CC1 | 18 µM | 0.33 µM | > 35 µM | – |
| Cn1ccc(C(=O)N(C)[C@H]2CC[C@H]([C@H](N)Cc3cc(F)ccc3F)CC2)n1 | 21 µM | 0.14 µM | > 35 µM | > 100 µM |
| CN(C(=O)c1ccno1)[C@H]1CC[C@H]([C@H](N)Cc2cc(F)ccc2F)CC1 | 58 µM | 0.12 µM | > 35 µM | > 100 µM |
| CN(Cc1cccc(C#N)c1)[C@H]1CC[C@H]([C@H](N)Cc2cc(F)ccc2F)CC1 | 14 µM | 0.22 µM | > 35 µM | > 100 µM |
| CN(Cc1ccc(C#N)cc1)[C@H]1CC[C@H]([C@H](N)Cc2cc(F)ccc2F)CC1 | 12 µM | 0.29 µM | > 35 µM | > 100 µM |
